The record followed here is ChEMBL document CHEMBL5335819, “Discovery of an ellipticine derivative as TLR3 inhibitor against influenza A virus and SARS-CoV-2” (Bioorg Med Chem Lett, 2024).

Activity calls are given as the source filed them. No cut-off for these calls is given here. Where only a bound is given, the exact number is not on record here.

One may read the CC50 as the concentration that lowers cell viability or growth by half. In general, IC50 refers to the concentration needed to halve the response being measured.

Data set [1] has as its system Influenza A virus. Description: Antiviral activity against Influenza virus infected in human A549 cells assessed as reduction in virus induced IFN- beta mRNA expression level by qRT-PCR analysis. The format is functional, organism-based.
A short description of data set [2]: Cytotoxicity against human BEAS-2B cells assessed as reduction in cell viability incubated for 48 hrs by MTT assay. Type of data set: toxicity, cell-based. A general note: Tetrazolium assays rely on reduction of a dye to a coloured formazan, in cell work by metabolically active cells.
Data set [3] in a line: Cytotoxicity against human A549 cells assessed as reduction in cell viability incubated for 48 hrs by MTT assay. The format is toxicity, cell-based.
In data set [4] the test system is Influenza A virus. Description: Antiviral activity against Influenza virus infected in human A549 cells assessed as reduction in virus induced CCL-5 mRNA expression level by qRT-PCR analysis. Type of data set: functional, organism-based.
Data set [5] addresses Toll-like receptor 3 (Homo sapiens) (UniProt O15455). Description: Inhibition of human TLR3 expressed in mouse RAW264.7 cells assessed as inhibition of NO production. The format is cell-based.
Data set [6] concerns SARS-CoV-2. The data set can be described thus: Antiviral activity against SARS-CoV-2 infected in African green monkey Vero E6 cells. Type of data set: functional, organism-based. Conditions: Severe acute respiratory syndrome coronavirus 2, Vero C1008.
The test system of data set [7] is Influenza A virus. Description: Antiviral activity against Influenza virus infected in human A549 cells assessed as reduction in virus induced IP-10 mRNA expression level by qRT-PCR analysis. Type of data set: functional, organism-based. (Quantitative PCR measures a nucleic acid by following its amplification.)
The test system of data set [8] is Influenza A virus. The data set can be described thus: Antiviral activity against Influenza virus infected in TLR3 knockdown human A549 cells assessed as reduction in NP protein level measured after 24 hrs by Western blot analysis. The format is functional, organism-based. For orientation: In western blotting, separated proteins are transferred to a membrane and probed.

The nature of data set [9]: Cytotoxicity against human HEK293T cells assessed as reduction in cell viability incubated for 48 hrs by MTT assay. The format is toxicity, cell-based, HEK-293T.
Data set [10] has as its system Influenza A virus. Description: Antiviral activity against Influenza virus infected in TLR3 human knockdown A549 cells assessed as reduction in PB2 protein level measured after 24 hrs by Western blot analysis. The format is functional, organism-based.
Data set [11] deals with Influenza A virus. The data set can be described thus: Antiviral activity against Influenza A virus A/Puerto Rico/8/34 (H1N1) infected in dog MDCK cells.
Data set [12] relates to Influenza A virus. The data set can be described thus: Antiviral activity against Influenza A virus A/WSN/33 (H1N1) infected in dog MDCK cells.
Data set [13] has as its system SARS-CoV-2. The data set can be described thus: Antiviral activity against SARS-CoV-2 infected in African green monkey Vero E6 cells assessed as inhibition of NP protein by indirect immunofluoresence assay. Type of data set: functional, organism-based. As to conditions: Severe acute respiratory syndrome coronavirus 2.
The nature of data set [14]: Cytotoxicity against African green monkey Vero E6 cells assessed as reduction in cell viability by CCK-8 assay. Type of data set: toxicity, cell-based, Vero C1008. As to conditions: chlorocebus sabaeus.
Data set [15] concerns Influenza A virus. The data set can be described thus: Antiviral activity against Influenza virus infected in TLR3 knockdown human A549 cells by plaque assay. Type of data set: functional, organism-based.
In a further data set the test system is A549. The data set can be described thus: Reduction in Poly(I:C) induced TLR3 mRNA expression in human A549 cells by qRT-PCR analysis. The format is functional, cell-based.
The next data set deals with MDCK. The data set can be described thus: Cytotoxicity against MDCK cells assessed as reduction in cell viability incubated for 48 hrs by MTT assay. As to conditions: dog. Type of data set: toxicity, cell-based, Canis lupus familiaris.

Chain of Toll-like receptor 3 (Homo sapiens) (O15455 whole entry): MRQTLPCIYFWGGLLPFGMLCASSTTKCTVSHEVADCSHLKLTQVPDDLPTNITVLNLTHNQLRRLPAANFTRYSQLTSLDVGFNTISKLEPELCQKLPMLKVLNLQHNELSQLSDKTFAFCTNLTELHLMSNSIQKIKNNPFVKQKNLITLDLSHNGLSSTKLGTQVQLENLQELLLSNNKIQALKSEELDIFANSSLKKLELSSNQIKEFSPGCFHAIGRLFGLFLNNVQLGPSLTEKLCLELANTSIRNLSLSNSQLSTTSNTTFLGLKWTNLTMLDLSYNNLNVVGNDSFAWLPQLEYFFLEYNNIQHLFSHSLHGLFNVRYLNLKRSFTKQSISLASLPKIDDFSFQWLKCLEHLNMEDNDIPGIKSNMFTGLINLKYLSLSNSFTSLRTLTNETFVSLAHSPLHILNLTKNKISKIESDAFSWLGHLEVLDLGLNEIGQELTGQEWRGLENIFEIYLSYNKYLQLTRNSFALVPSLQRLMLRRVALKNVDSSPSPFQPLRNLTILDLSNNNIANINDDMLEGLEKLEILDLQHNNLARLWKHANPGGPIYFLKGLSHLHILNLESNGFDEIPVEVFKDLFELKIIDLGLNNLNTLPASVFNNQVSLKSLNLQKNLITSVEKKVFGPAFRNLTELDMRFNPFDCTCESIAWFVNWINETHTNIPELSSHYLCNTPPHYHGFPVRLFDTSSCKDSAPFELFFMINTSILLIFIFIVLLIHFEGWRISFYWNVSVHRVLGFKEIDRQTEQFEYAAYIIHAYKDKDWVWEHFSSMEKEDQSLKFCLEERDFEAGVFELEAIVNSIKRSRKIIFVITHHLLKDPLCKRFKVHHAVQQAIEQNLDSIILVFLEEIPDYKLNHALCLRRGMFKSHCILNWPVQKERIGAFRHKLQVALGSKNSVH

As to `COc1ccc2[nH]c3c(C)c4ccncc4c(C)c3c2c1`, the result with Influenza A virus [1], in the data set on Influenza A virus [4], with Influenza A virus [7], with Influenza A virus [8], in the data set with Influenza A virus [10] and with A549 was Active. The CC50 at 48 h in data set [2], in data set [3] and in data set [9] was 5.33 µM throughout. Moreover, in [5], the inhibition entry is “Active”. Moreover, the IC50 is 0.43 µM in the data set with SARS-CoV-2 [6], 0.14 µM in the data set with Influenza A virus [11] and 0.33 µM in the data set with Influenza A virus [12]. Also, the Activity entry in the data set with SARS-CoV-2 [13] is “Dose-Dependent Effect”. Moreover, the CC50 was greater than 10 µM in [14] and 5.33 µM in the data set on MDCK. The result with Influenza A virus [15] was inactive.
